According to publication PMC5949348, “The Metabolism of Separase Inhibitor Sepin-1 in Human, Mouse, and Rat Liver Microsomes” (Frontiers in Pharmacology, 2018):

Experiments:
CYP2D6 = target: T1, CYP2D6 (Homo sapiens, UniProt P10635); test: Sepin-1 metabolism by recombinant CYP2D6; assay type: in vitro ADME; conditions: 30 μM sepin-1, 2 pmol cDNA-expressed enzyme, NADPH 1.0 mM, 30 min; unit not given, highest enzyme per metabolite = 100.0
T1 construct: purchased XenoTech
Description: (§1) Incubations were conducted in 1× phosphate-buffered saline (1× PBS, pH 7.4), containing 30 μM sepin-1, 1.0 mg HLM, MLM, RLM, or 2 pmol of each cDNA-expressed P450 enzyme (control, CYP1A2, 2A6, 2B6, 2C8, 2C9, 2C19, 2D6, 2E1, and CYP3A4) in a final volume of 190 μl. After 5 min of pre-incubation at 37°C, the reaction was initiated by adding 10 μl of 20 mM NADPH (final concentration 1.0 mM) and continued for 30 min, with shaking at 37°C. Incubations lacking NADPH served as controls. Reactions were terminated with 200 μl of ice-cold methanol, followed by vortexing for 30 s and centrifuging at 15,000 × g for 15 min. Each supernatant was transferred to an auto sampler vial, and 5.0 μl was injected on to UHPLC coupled with a QTOFMS system for metabolite analysis. Incubations were conducted in quadruplicate for HLM, in triplicate for MLM and RLM, and in duplicate for cDNA-expressed P450 enzymes.
(§2) The separation of sepin-1 and its metabolites was achieved using a 1260 Infinity Binary LC System (Agilent Technologies, Santa Clara, CA, United States) equipped with 100 mm × 2.1 mm (Agilent XDB C18) column. The column temperature was maintained at 40°C. The flow rate was 0.3 ml/min, with a gradient ranging from 2% to 98% aqueous acetonitrile containing 0.1% formic acid in a 15-min run. QTOFMS was operated in a positive mode with electrospray ionization. […]

CYP2B6 = target: T2, CYP2B6 (Homo sapiens, UniProt P20813); test: Sepin-1 metabolism by recombinant CYP2B6; assay type: in vitro ADME; conditions: 30 μM sepin-1, 2 pmol cDNA-expressed enzyme, NADPH 1.0 mM, 30 min; unit not given, highest enzyme per metabolite = 100.0
T2 construct: purchased XenoTech
T2 sequence (P20813 1-491): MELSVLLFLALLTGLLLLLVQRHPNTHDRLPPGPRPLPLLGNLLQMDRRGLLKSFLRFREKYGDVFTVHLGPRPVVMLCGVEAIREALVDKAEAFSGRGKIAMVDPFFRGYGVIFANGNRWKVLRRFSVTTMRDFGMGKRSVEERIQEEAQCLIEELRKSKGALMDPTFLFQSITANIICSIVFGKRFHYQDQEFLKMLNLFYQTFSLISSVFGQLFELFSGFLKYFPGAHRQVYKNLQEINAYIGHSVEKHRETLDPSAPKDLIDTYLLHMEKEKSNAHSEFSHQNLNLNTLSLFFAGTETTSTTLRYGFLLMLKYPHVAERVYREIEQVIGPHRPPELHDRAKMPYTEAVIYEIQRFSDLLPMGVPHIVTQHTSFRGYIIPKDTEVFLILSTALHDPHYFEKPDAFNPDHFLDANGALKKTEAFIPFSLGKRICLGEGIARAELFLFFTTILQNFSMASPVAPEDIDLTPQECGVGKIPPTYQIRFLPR
Description: as §1, §2

CYP2E1 = test system: T3, CYP2E1; test: Sepin-1 metabolism by recombinant CYP2E1; assay type: in vitro ADME, human; conditions: 30 μM sepin-1, 2 pmol cDNA-expressed enzyme, NADPH 1.0 mM, 30 min; unit not given, highest enzyme per metabolite = 100.0
T3 construct: purchased XenoTech
Description: as §1, §2

[1] = Sepin-1 metabolism with cDNA-expressed P450 control; assay type: in vitro ADME, human; conditions: 30 μM sepin-1, control enzyme preparation, NADPH 1.0 mM, 30 min; unit not given, highest enzyme per metabolite = 100.0
Description: as §1, §2

CYP2C19 = target: T4, CYP2C19 (Homo sapiens, UniProt P33261); test: Sepin-1 metabolism by recombinant CYP2C19; assay type: in vitro ADME; conditions: 30 μM sepin-1, 2 pmol cDNA-expressed enzyme, NADPH 1.0 mM, 30 min; unit not given, highest enzyme per metabolite = 100.0
T4 construct: purchased XenoTech
T4 sequence (P33261 whole entry): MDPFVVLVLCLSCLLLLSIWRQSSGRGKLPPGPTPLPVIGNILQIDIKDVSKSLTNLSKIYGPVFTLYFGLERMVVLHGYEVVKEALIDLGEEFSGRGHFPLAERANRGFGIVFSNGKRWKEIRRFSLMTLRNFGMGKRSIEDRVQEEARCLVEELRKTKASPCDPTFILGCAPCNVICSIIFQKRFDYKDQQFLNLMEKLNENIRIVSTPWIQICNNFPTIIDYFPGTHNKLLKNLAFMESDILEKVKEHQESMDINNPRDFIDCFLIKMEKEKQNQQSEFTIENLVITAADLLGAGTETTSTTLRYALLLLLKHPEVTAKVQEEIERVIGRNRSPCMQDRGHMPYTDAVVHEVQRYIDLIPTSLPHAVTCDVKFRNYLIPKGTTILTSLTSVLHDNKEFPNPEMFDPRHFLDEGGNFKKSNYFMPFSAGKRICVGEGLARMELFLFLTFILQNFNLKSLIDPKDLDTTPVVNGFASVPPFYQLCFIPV
Description: as §1, §2

CYP2C9 = target: T5, CYP2C9 (Homo sapiens, UniProt P11712); test: Sepin-1 metabolism by recombinant CYP2C9; assay type: in vitro ADME; conditions: 30 μM sepin-1, 2 pmol cDNA-expressed enzyme, NADPH 1.0 mM, 30 min; unit not given, highest enzyme per metabolite = 100.0
T5 construct: purchased XenoTech
T5 sequence (P11712 whole entry): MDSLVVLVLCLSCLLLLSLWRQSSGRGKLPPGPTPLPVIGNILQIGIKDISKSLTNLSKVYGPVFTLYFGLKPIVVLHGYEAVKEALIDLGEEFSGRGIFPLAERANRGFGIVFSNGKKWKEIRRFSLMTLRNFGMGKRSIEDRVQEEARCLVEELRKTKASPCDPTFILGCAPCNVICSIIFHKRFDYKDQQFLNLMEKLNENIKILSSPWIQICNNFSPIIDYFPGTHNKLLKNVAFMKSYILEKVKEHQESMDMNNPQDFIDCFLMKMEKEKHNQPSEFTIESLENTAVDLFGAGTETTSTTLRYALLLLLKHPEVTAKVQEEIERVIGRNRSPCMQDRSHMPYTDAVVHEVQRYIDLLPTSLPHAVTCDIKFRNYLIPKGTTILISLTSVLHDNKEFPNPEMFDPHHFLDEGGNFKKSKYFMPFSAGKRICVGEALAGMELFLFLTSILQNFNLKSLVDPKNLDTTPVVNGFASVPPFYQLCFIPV
Description: as §1, §2

CYP2A6 = test system: T6, CYP2A6; test: Sepin-1 metabolism by recombinant CYP2A6; assay type: in vitro ADME, human; conditions: 30 μM sepin-1, 2 pmol cDNA-expressed enzyme, NADPH 1.0 mM, 30 min; unit not given, highest enzyme per metabolite = 100.0
T6 construct: purchased XenoTech
Description: as §1, §2

[2] = Metabolism of sepin-1 in HLM, MLM and RLM (metabolite profiling, UHPLC-QTOFMS); assay type: in vitro ADME, human, mouse, rat; conditions: 30 min; for Source (liver microsomes in which the metabolite was found): 30 μM sepin-1, 1.0 mg microsomes, NADPH 1.0 mM, 37°C; for Relative abundance of metabolite across HLM, MLM and RLM (in words): 30 μM sepin-1, NADPH 1.0 mM
Description: as §1
(§3) The separation of sepin-1 and its metabolites was achieved using a 1260 Infinity Binary LC System (Agilent Technologies, Santa Clara, CA, United States) equipped with 100 mm × 2.1 mm (Agilent XDB C18) column. The column temperature was maintained at 40°C. The flow rate was 0.3 ml/min, with a gradient ranging from 2% to 98% aqueous acetonitrile containing 0.1% formic acid in a 15-min run. QTOFMS was operated in a positive mode with electrospray ionization. Ultra-high pure nitrogen was applied as the drying gas (12 l/min) and the collision gas. The drying gas temperature was set at 325°C, and the nebulizer pressure was kept at 35 psi. The capillary voltages were set at 3.5 kV. During MS, real-time mass correction and accurate mass were achieved by continuously measuring standard reference ions at m/z 121.0508 and 922.0098 in the positive mode. The MS/MS of sepin-1 metabolites was performed in a targeted mode with a default isolation width of m/z 4 and collision energy ramp ranging from 10 to 45 V.
Mass chromatograms and mass spectra were acquired by MassHunter Workstation Data Acquisition Software (Agilent, Santa Clara, CA, United States) in centroid and profile formats from m/z 100 to 1000. The acquisition rate was set as 1.5 spectra per second. Centroid and integrated mass chromatographic data were processed by Mass Profinder and Mass Profiler Professional Software (Agilent, Santa Clara, CA, United States) to generate a multivariate data matrix. The corresponding data matrices were then exported into SIMCA13 (Umetrics, Kinnelon, NJ, United States) for multivariate data analysis. OPLS-DA was conducted on Pareto-scaled data. For the QQQMS data, QQQ Quantitative Analysis Software (Agilent, Santa Clara, CA, United States) was used for metabolite analysis. […] Statistical differences between two groups were determined by Student’s t-test.

CYP2C8 = target: T7, CYP2C8 (Homo sapiens, UniProt P10632); test: Sepin-1 metabolism by recombinant CYP2C8; assay type: in vitro ADME; conditions: 30 μM sepin-1, 2 pmol cDNA-expressed enzyme, NADPH 1.0 mM, 30 min; unit not given, highest enzyme per metabolite = 100.0
T7 construct: purchased XenoTech
T7 sequence (P10632 1-490): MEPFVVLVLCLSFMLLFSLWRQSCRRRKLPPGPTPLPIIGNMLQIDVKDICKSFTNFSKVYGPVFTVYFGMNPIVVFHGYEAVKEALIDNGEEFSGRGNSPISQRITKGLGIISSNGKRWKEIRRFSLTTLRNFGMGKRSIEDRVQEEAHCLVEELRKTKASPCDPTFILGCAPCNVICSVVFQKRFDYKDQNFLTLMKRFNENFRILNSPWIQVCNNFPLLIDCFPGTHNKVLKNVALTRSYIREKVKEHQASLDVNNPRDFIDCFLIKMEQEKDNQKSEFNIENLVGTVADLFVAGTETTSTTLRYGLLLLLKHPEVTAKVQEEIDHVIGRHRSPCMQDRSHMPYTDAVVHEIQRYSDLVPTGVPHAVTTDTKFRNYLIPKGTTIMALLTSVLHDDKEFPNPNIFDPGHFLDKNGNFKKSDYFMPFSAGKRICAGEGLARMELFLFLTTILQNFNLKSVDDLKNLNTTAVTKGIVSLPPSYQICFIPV
Description: as §1, §2

CYP3A4 = target: T8, CYP3A4 (Homo sapiens, UniProt P08684); test: Sepin-1 metabolism by recombinant CYP3A4; assay type: in vitro ADME; conditions: 30 μM sepin-1, 2 pmol cDNA-expressed enzyme, NADPH 1.0 mM, 30 min; unit not given, highest enzyme per metabolite = 100.0
T8 construct: purchased XenoTech
T8 sequence (P08684 whole entry): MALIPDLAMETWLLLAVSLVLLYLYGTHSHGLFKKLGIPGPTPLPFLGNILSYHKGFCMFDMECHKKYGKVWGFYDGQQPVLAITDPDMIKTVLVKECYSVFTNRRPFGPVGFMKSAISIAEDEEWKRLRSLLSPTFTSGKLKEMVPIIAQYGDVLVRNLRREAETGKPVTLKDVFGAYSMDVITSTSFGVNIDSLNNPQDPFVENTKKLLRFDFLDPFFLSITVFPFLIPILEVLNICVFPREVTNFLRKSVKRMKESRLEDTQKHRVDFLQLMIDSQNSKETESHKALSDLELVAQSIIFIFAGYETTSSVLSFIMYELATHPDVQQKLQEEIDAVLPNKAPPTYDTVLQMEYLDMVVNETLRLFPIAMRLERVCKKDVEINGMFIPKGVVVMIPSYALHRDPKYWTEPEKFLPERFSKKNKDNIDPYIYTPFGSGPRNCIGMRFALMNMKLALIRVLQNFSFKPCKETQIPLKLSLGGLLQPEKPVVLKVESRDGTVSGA
Description: as §1, §2

CYP1A2 = target: T9, CYP1A2 (Homo sapiens, UniProt P05177); test: Sepin-1 metabolism by recombinant CYP1A2; assay type: in vitro ADME; conditions: 30 μM sepin-1, 2 pmol cDNA-expressed enzyme, NADPH 1.0 mM, 30 min; unit not given, highest enzyme per metabolite = 100.0
T9 construct: purchased XenoTech
T9 sequence (P05177 1-516): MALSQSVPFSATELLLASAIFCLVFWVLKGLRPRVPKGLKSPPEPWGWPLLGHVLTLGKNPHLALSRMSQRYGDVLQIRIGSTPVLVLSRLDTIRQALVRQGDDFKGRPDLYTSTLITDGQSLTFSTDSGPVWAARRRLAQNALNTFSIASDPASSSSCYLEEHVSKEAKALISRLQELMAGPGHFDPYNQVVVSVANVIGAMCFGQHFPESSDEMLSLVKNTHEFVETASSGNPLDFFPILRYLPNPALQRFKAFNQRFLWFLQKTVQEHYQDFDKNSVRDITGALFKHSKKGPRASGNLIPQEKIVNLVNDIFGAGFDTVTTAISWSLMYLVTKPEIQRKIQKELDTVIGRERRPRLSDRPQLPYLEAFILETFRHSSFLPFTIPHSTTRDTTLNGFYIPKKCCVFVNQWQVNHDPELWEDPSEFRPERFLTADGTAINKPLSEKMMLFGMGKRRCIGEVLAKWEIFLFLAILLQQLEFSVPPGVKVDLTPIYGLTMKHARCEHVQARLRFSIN
Description: as §1, §2

[3] = Metabolism of sepin-1 in human liver microsomes; assay type: in vitro ADME; conditions: HLM, 30 μM sepin-1, with or without NADPH 1.0 mM
Description: as §1
as §3, with “During MS, real-time mass correction and accurate mass were achieved by continuously measuring standard reference ions at m/z 121.0508 and 922.0098 in the positive mode. The MS/MS of sepin-1 metabolites was performed in a targeted mode with a default isolation width of m/z 4 and collision energy ramp ranging from 10 to 45 V.” left out
Mass chromatograms and mass spectra were acquired by MassHunter Workstation Data Acquisition Software (Agilent, Santa Clara, CA, United States) in centroid and profile formats from m/z 100 to 1000. […] For the QQQMS data, QQQ Quantitative Analysis Software (Agilent, Santa Clara, CA, United States) was used for metabolite analysis. […] Statistical differences between two groups were determined by Student’s t-test.

T1 sequence (P10635 whole entry): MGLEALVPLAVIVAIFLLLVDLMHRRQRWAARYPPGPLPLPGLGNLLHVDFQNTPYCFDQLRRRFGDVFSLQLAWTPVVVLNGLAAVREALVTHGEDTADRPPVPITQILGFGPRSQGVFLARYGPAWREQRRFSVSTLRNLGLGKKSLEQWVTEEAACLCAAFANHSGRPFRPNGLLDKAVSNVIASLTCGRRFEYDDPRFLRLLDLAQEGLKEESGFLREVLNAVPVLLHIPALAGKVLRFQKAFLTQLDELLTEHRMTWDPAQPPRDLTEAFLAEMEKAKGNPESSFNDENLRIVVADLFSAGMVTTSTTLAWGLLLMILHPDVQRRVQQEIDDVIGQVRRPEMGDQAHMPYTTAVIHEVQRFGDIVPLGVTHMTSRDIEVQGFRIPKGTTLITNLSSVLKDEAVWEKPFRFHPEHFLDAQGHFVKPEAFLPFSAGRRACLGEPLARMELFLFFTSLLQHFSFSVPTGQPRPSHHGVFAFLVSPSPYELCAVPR

Compound	Formation of metabolite by CYP2D6 (Role of P450s in the metabolism of sepin-1) (CYP2D6)	Formation of metabolite by CYP2B6 (Role of P450s in the metabolism of sepin-1) (CYP2B6)	Formation of metabolite by CYP2E1 (Role of P450s in the metabolism of sepin-1) (CYP2E1)	Formation of metabolite, Control (Role of P450s in the metabolism of sepin-1) [1]	Formation of metabolite by CYP2C19 (Role of P450s in the metabolism of sepin-1) (CYP2C19)	Formation of metabolite by CYP2C9 (Role of P450s in the metabolism of sepin-1) (CYP2C9)	Formation of metabolite by CYP2A6 (Role of P450s in the metabolism of sepin-1) (CYP2A6)	Source (liver microsomes in which the metabolite was found) [2]	Relative abundance of metabolite across HLM, MLM and RLM (in words) [2]	Formation of metabolite by CYP2C8 (Role of P450s in the metabolism of sepin-1) (CYP2C8)	Formation of metabolite by CYP3A4 (Role of P450s in the metabolism of sepin-1) (CYP3A4)	Formation of metabolite by CYP1A2 (Role of P450s in the metabolism of sepin-1) (CYP1A2)	NADPH dependence of metabolite formation [3]
CC1(C)Nc2ccc([N+](=O)[O-])cc2N1 [M1]	96.9	91.9	89.9	79.5	90.8	90.4	90.8	HLM, MLM, RLM	dominant metabolites in all the three species	91.3	100.0	86.3	NADPH dependent
CC1(C)[N+]([O-])=c2ccc(N)cc2=[N+]1[O-] [M2]	100.0	85.9	53.2	41.5	67.5	57.2	76.1	HLM, MLM, RLM	dominant metabolites in all the three species	63.6	95.3	50.5	NADPH dependent
